Assay results reported in the NIST ThermoML archive (doi:10.1016/j.fluid.2015.07.037).
Numbers after ± are expanded uncertainties.

Key:
[1] = Molar enthalpy of transition or fusion; settings: Crystal; DSC
[2] = Crystal; DTA

| SMILES | Molar enthalpy of transition or fusion [1] [kcal/mol] | Normal melting temperature [2] [°C] |
| --- | --- | --- |
| CC(C)NCC(O)c1ccc(O)c(O)c1.Cl (stereo unspecified) | 19.1 ± 0.382 | 170.22 ± 0.41 |
| C[C@H](N)[C@H](O)c1cccc(O)c1.O=C(O)[C@H](O)[C@@H](O)C(=O)O | 18.5 ± 0.382 | 179.54 ± 0.41 |
| CNCC(O)c1ccc(O)cc1 (stereo unspecified) [synephrine] | 23.8 ± 0.478 | 190.38 ± 0.41 |
